pEC50: −log10 of the molar value. Read-outs that look alike come from different tables or passages of the source.
Columns and labels:
mock-infected MT-4 cells = test: Cytotoxicity: viability of mock-infected cells by the MTT method; format: cell-based, human
Procedure: (§1) Cells and viruses. MT-4, C8166,H9/IIIB and CEM cells were grown at 37° C. in a 5% CO2 atmosphere in RPMI 1640 medium, supplemented with 10% fetal calf serum (FCS), 100 IU/mL penicillin and 100 μg/mL streptomycin. Cell cultures were checked periodically for the absence of mycoplasma contamination with a MycoTect Kit (Gibco). Human immunodeficiency virus type-I (HIV-1, IIIB strain) was obtained from supernatants of persistently infected H9/IIIB cells.
(§2) Anti-HIV Assays. Activity of the compounds against HIV-1 and HIV-2 multiplication in acutely infected cells was based on the inhibition of virus-induced cytopathicity in MT-4 and C8166 cells, respectively. Briefly, 50 μL of culture medium containing 1×10^4 cells were added to each well of flat-bottom microtiter trays containing 50 μl of culture medium with or without various concentrations of the test compounds. Then 20 μL of an HIV suspension containing 100 CCID50 were added. After a 4-day incubation at 37° C., the number of viable cells was determined by the 3-(4,5-dimethylthiazol-[…])-2,5-diphenyltetrazolium bromide (MTT) method. Cytotoxicity of the compounds was evaluated in parallel with their antiviral activity. It was based on the viability of mock-infected cells, as monitored by the MTT method.

HIV-1 (IIIB strain) = format: cell-based; details: for pEC50: anti-HIV-1 activity; for SI: selectivity index (CC50/EC50)
Procedure: Compounds. Compounds were solubilized in DMSO at 200 mM and then diluted into culture medium.
as §1
HIV Titration. Titration of HIV was performed in C8166 cells by the standard limiting dilution method (dilution 1:2, four replica wells per dilution) in 96-well plates. The infectious virus titre was determined by light microscope scoring of cytopathicity after 4 days of incubation and the virus titres were expressed as CCID50/mL.
as §2

[1] = acutely infected MT-4 cells, MTT

| Compound | CC50 (mock-infected MT-4 cells) [µM] | pEC50 (HIV-1 (IIIB strain); HIV-1-infected MT-4 cells) | SI (HIV-1 (IIIB strain)) | CC50 (mock-infected MT-4 cells; MTT) [µM] | pEC50 (HIV-1 (IIIB strain); [1]) |
| --- | --- | --- | --- | --- | --- |
| CCC(C)Sc1nc(Cc2ccc(C(F)(F)F)cc2)cc(=O)[nH]1 (stereo not shown) [MC 959] | 200 | 4.60 | 8 |  |  |
| CCC(c1cc(=O)[nH]c(SC(C)C)n1)c1c(Cl)cccc1Cl (stereo not shown) [MC 1000] | > 200 | 6.40 | >500 |  |  |
| CCC(C)Sc1nc(C(C)c2c(F)cccc2F)c(C)c(=O)[nH]1 (stereo not shown) [MC 1109] | 200 | 7.52 | 6,666 |  |  |
| Cc1c(Cc2c(F)cccc2F)nc(NCc2ccccc2)[nH]c1=O [MC 1105] | 50 | 6.30 | 100 |  |  |
| CC(C)Sc1nc(Cc2c(F)cccc2F)c(C(C)C)c(=O)[nH]1 [MC 1039] | > 200 | 6.40 | >500 |  |  |
| CC1CCC(C)C(Oc2nc(Cc3ccccc3)cc(=O)[nH]2)C1 (stereo not shown) [MC 507] | 143 | 5.46 | 40 |  |  |
| CCCCc1c(Cc2ccccc2)nc(SC(C)CC)[nH]c1=O (stereo not shown) [MC 834] | > 200 | < 3.70 |  |  |  |
| Cc1c(C(C)c2c(F)cccc2F)nc(NC2CCCCC2)[nH]c1=O (stereo not shown) [MC 1181] |  |  |  | 58 | 7.52 |
| CCC(C)Sc1nc(Cc2ccccc2N)cc(=O)[nH]1 (stereo not shown) [MC 825] | > 200 | 4.67 | >9 |  |  |
| O=c1cc(Cc2ccccc2)nc(SCOCc2ccccc2)[nH]1 [MC 843] | > 200 | 4.35 | >4 |  |  |
| CCCCSc1nc(C(C)c2c(F)cccc2F)c(C)c(=O)[nH]1 (stereo not shown) [MC 1175] |  |  |  | 112 | 8.10 |
| Cc1c(Cc2c(Cl)cccc2Cl)nc(SC2CCCCC2)[nH]c1=O [MC 917] | > 200 | 4.66 | >9 |  |  |
| CCc1c(Cc2ccccc2)nc(SC(C)CC)[nH]c1=O (stereo not shown) [MC 798] | > 200 | 6.00 | >200 |  |  |
| Cc1c(C(C)c2c(F)cccc2F)nc(SC2CCCC2)[nH]c1=O (single isomer, unassigned) [MC 1047−] |  |  |  | > 200 | 6.15 |
| Cc1c(Cc2ccccc2)nc(OC2CC(C)CCC2C)[nH]c1=O (stereo not shown) [MC 531] | 138 | 5.46 | 39 |  |  |
| O=c1cc(Cc2c(Cl)cccc2Cl)nc(SC2CCCCC2)[nH]1 [MC 891] | > 200 | 6.22 | >333 |  |  |
| CCCCSc1nc(Cc2c(Cl)cccc2Cl)c(C)c(=O)[nH]1 [MC 920] | > 200 | 5.93 | >171 |  |  |
| CCC(C)Sc1nc(Cc2c(Cl)cccc2Cl)cc(=O)[nH]1 (stereo not shown) [MC 815] | > 200 | 6.85 | >1,428 |  |  |
| Cc1c(Cc2c(F)cccc2F)nc(N2CCSCC2)[nH]c1=O [MC 1206] |  |  |  | > 200 | 7.05 |
| Cc1c(Cc2c(F)cccc2F)nc(SC2CCCC2)[nH]c1=O [MC 922] | > 200 | 7.10 | >2,500 |  |  |

| Compound | CC50 (mock-infected MT-4 cells) [µM] | pEC50 (HIV-1 (IIIB strain); HIV-1-infected MT-4 cells) | SI (HIV-1 (IIIB strain)) | CC50 (mock-infected MT-4 cells; MTT) [µM] | pEC50 (HIV-1 (IIIB strain); [1]) |
| --- | --- | --- | --- | --- | --- |
| CCC(C)Sc1nc(Cc2ccc([N+](=O)[O-])cc2)c(C)c(=O)[nH]1 (stereo not shown) [MC 924] | > 200 | 5.70 | >100 |  |  |
| CCC(C)Sc1nc(Cc2ccccc2Cl)c(C)c(=O)[nH]1 (stereo not shown) [MC 909] | > 200 | 6.57 | >741 |  |  |
| COCCNc1nc(Cc2c(F)cccc2F)cc(=O)[nH]1 [MC 1043] | > 200 | 6.10 | >250 |  |  |
| CC(C)Sc1nc(C(C)c2ccccc2)cc(=O)[nH]1 (stereo not shown) [MC 890] | > 200 | 6.05 | >222 |  |  |
| Cc1c(Cc2c(Cl)cccc2Cl)nc(SC(C)C)[nH]c1=O [MC 914] | > 200 | 5.89 | >154 |  |  |
| CC(c1cc(=O)[nH]c(SC2CCCCC2)n1)c1cccc2ccccc12 (stereo not shown) [MC 974] | 45 | 6.85 | 321.4 |  |  |
| CCCNc1nc(Cc2c(F)cccc2F)c(C)c(=O)[nH]1 [MC 1186] | > 200 | 7.70 | >10,000 |  |  |
| CSCSc1nc(Cc2c(F)cccc2F)cc(=O)[nH]1 [MC 1161, 6-(2,6-Difluorophenyhnethyl)-3,4-dihydro-2-(methylthiomethyl)thiopyrimidin-4-(3H)-one] |  |  |  | > 200 | 6.10 |
| CSc1nc(Cc2c(Cl)cccc2Cl)c(C)c(=O)[nH]1 [MC 912] | > 200 | 5.49 | >62 |  |  |
| CCNc1nc(Cc2c(F)cccc2F)cc(=O)[nH]1 [MC 1119] | > 200 | 6.10 | >250 |  |  |
| Cc1c(C(C)c2c(F)cccc2F)nc(SC2CCCCC2)[nH]c1=O (stereo not shown) [MC 1174] |  |  |  | > 200 | 7.74 |
| O=c1cc(Cc2c(F)cccc2F)nc(N2CCCCC2)[nH]1 [MC 1194] |  |  |  | > 200 | 7.70 |
| CCC(C)Sc1nc(C(c2ccccc2)c2ccccc2)cc(=O)[nH]1 (stereo not shown) [MC 796] | 61 | < 4.21 |  |  |  |
| CC1CCC(Oc2nc(Cc3ccccc3)cc(=O)[nH]2)CC1C (stereo not shown) [MC 508] | 58 | 5.19 | 9 |  |  |
| CCc1c(Cc2cccc3ccccc23)nc(SC(C)CC)[nH]c1=O (stereo not shown) [MC 804] | > 200 | 5.28 | >34 |  |  |
| CCC(C)Nc1nc(C(C)c2c(F)cccc2F)cc(=O)[nH]1 (stereo not shown) [MC 1192] |  |  |  | 86 | 7.40 |
| CCC(C)Sc1nc(Cc2cc(F)cc(F)c2)cc(=O)[nH]1 (stereo not shown) [MC 1041] | > 200 | 5.85 | >143 |  |  |
| CC(C)Sc1nc(C(C)c2cccc3ccccc23)cc(=O)[nH]1 (stereo not shown) [MC 971] | 119 | 5.96 | 108 |  |  |
| CCC(C)Sc1nc(Cc2ccccc2C(F)(F)F)cc(=O)[nH]1 (stereo not shown) [MC 868] | > 200 | 4.49 | 6.2 |  |  |
| Cc1c(Cc2c(F)cccc2F)nc(SC(C)C)[nH]c1=O [MC 881] | > 200 | 7.30 | >4,000 |  |  |

| Compound | CC50 (mock-infected MT-4 cells) [µM] | pEC50 (HIV-1 (IIIB strain); HIV-1-infected MT-4 cells) | SI (HIV-1 (IIIB strain)) | CC50 (mock-infected MT-4 cells; MTT) [µM] | pEC50 (HIV-1 (IIIB strain); [1]) |
| --- | --- | --- | --- | --- | --- |
| O=c1cc(Cc2c(Cl)cccc2Cl)nc(SC2CCCC2)[nH]1 [MC 888] | > 200 | 6.40 | >500 |  |  |
| CSc1nc(C(C)c2c(F)cccc2F)c(C)c(=O)[nH]1 (stereo not shown) [MC 1060] | > 200 | 7.40 | >5,000 |  |  |
| Cc1c(C(C)c2c(F)cccc2F)nc(NC2CCCC2)[nH]c1=O (stereo not shown) [MC1129, 2-Cyclopentylamino-6-{1-(2,6-difluorophenyl)ethyl}-3,4-dihydro-5-methylpyrimidin-4-(3H)-one] | 90 | 7.70 | 4,500 |  |  |
| CCC(C)Sc1nc(Cc2c(F)cccc2F)cc(=O)[nH]1 (stereo not shown) [MC 848] | 200 | 7.40 | 5,000 |  |  |
| O=c1cc(Cc2c(F)cccc2F)nc(N2CCSCC2)[nH]1 [MC 1193] |  |  |  | > 200 | 7.30 |
| CCCCNc1nc(C(C)c2c(F)cccc2F)c(C)c(=O)[nH]1 (stereo not shown) [MC 1187] |  |  |  | 83 | 8.00 |
| CC1CC(C)CC(Oc2nc(Cc3ccccc3)cc(=O)[nH]2)C1 (stereo not shown) [MC 512] | > 200 | 4.52 | >6.7 |  |  |
| CN(C)c1nc(Cc2c(F)cccc2F)cc(=O)[nH]1 [MC 1182, 6-(2,6-Difluorophenylmethyl)-3,4-dihydro-2-N,N-dimethylaminopyrimidin-4-(3H)-one] |  |  |  | > 200 | 7.30 |
| CCCNc1nc(Cc2c(F)cccc2F)cc(=O)[nH]1 [MC 1078] | 200 | 6.96 | 1,818 |  |  |
| CCC(C)Sc1nc(Cc2ccccc2C)cc(=O)[nH]1 (stereo not shown) [MC 806] | > 200 | 5.74 | >111 |  |  |
| CC(C)Nc1nc(C(C)c2c(F)cccc2F)cc(=O)[nH]1 (stereo not shown) [MC 1191] |  |  |  | 115 | 7.52 |
| CC(C)Sc1nc(Cc2c(F)cccc2F)cc(=O)[nH]1 [MC 860] | > 200 | 6.70 | >1,000 |  |  |
| CC(C)CSc1nc(Cc2c(F)cccc2F)cc(=O)[nH]1 [MC 866] | 182 | 6.85 | 1,300 |  |  |
| CCC(C)Sc1nc(Cc2ccccc2[N+](=O)[O-])cc(=O)[nH]1 (stereo not shown) [MC 817] | > 200 | 6.60 | >800 |  |  |
| Cc1c(Cc2c(F)cccc2F)nc(SCC(C)C)[nH]c1=O [MC 921] | 64 | 7.00 | 640 |  |  |
| CCC(C)Sc1nc(Cc2ccc(C)cc2)cc(=O)[nH]1 (stereo not shown) [MC 809] | 200 | 6.22 | 333.3 |  |  |
| CCC(c1cc(=O)[nH]c(SC(C)C)n1)c1c(F)cccc1F (stereo not shown) [MC 1005] | 70 | 7.10 | 875 |  |  |
| CC(c1ccccc1)c1cc(=O)[nH]c(SC2CCCCC2)n1 (stereo not shown) [MC 898] | 149 | 6.22 | 248 |  |  |
| CCCCNc1nc(Cc2c(F)cccc2F)cc(=O)[nH]1 [MC 1077] | 100 | 7.00 | 1,000 |  |  |
